One data set deals with rats. To be noted: experiments of GB 1 468 998; cited from earlier work.
In data set [1] the test system is chickens raised for market. Nature of the data set: Feed for chickens raised for market (feed additive trial). Details: dose or concentration left out as unconfirmed. In kind it is in vivo. To be noted: 0.2 wt.-% added to air-dried food. The protocol:
2. Animal Feed Additive • 2.1 A formulation consisting of 5,000 mg creatinol-O -phosphate and 5,000 mg inulin was added to a typical formula for feed pellets as a food supplement for horses. • 2.2 A formulation consisting of 7,000 mg creatinol sulfate, 750 mg carnitine tartrate, 100 mg sucrose stearate, 160 mg talc, and 1,090 mg fructose was added to the base mixture for making dog biscuits. • 2.3 As a master batch, the following formulation was added to a regular commercial canned cat food mixture: 3,000 mg creatinol sulfate, 3,000 mg creatine, 40 mg magnesium stearate, 25 mg carboxymethylcellulose and 135 mg lactose. • 2.4 Feed for chickens raised for market
In addition the feed consumption was about 2 to 3% less than in former feeding methods.

The conditions of data set [2]: after administration; Arzneimittelforschung 1979, 29 (9A) 1477-79; cited from earlier work.

Here are results for two compounds from patent publication US7867948B2, “Use of guanidine compounds as physiological strengthening agents in the form of nutritional supplements, animal feed additives, in cosmetic preparations and as plant stimulants” (Alzchem Trostberg GmbH, priority 2004, dated 2011).

For `CN(CCO)C(=N)N.NC(CC(=O)O)C(=O)O` (stereo not shown) [creatinol aspartate], the swimming activity increased in the data set with rats is 30%.
For the compound `CN(CCOP(=O)(O)O)C(=N)N` [creatinol-O-phosphate], in data set [1] (41 days feeding time), the meat quality entry is on record as “improved quality”. The “increase in the final weight versus former feeding methods without addition of creatinol” value in data set [1] (after 41 days feeding time) stood at 4%. Moreover, in data set [2], the “creatinine levels in the urine” value is listed as “increase”.
